According to patent US20080248030A1, “Method of Treating Angiogenic Diseases” (Children's Medical Center Corporation, priority 2005, published 2008):

What was measured:
[1] = human, in vivo; cited from earlier work
chick aortic ring = experiment: Chick aortic ring endothelial sprouting assay; assay type: cell-based; settings: for effect on outgrowth: 100 pg/ml
Protocol: Aortic arches were dissected from day-14 chick embryos, cut into cross-sectional fragments, and implanted in vitro in Matrigel using a modification of methods previously described (V. Muthulckaruppan, personal communication). When cultured in MCDB-131 medium supplemented with 5% fetal bovine serum, endothelial cells sprouted and vascular channel formation occurred within 24-48 hours. Free or conjugated TNP-470 (10 pg/ml to 1 μg/ml) was added to the culture.

LLC = experiment: Antitumor activity on C57BL/6J mice bearing s.c. LLC; settings: 30 mg/kg q.o.d., data not shown
VEGFR-2 = settings: recently shown; cited from earlier work
BCE cells = experiment: Bovine capillary endothelial (BCE) cell proliferation assay; assay type: cell-based; settings: 10 pg/ml to 1 μg/ml TNP-470-equivalent concentration, 72 h
Protocol: For the proliferation assay, cells were washed with PBS and dispersed in a 0.05% trypsin solution. Cells were suspended (15,000 cells/ml) in DMEM supplemented with 10% BCS and 1% GPS, plated onto gelatinized 24-well culture plates (0.5 ml/well), and incubated for 24 h (37° C., 10% CO2). The media was replaced with 0.25 ml of DMEM, 5% BCS and 1% GPS and the test sample applied. Cells were challenged with free or conjugated TNP-470 (10 pg/ml to 1 μg/ml TNP-470-equivalent concentration). After 30 min of incubation, media and bFGF were added to obtain a final volume of 0.5 ml of DMEM, 5% BCS, 1% GPS and 1 ng/ml bFGF. Control cells were grown with or without bFGF. After 72 hr, cells were dispersed in trypsin, resuspended in Hematall (Fisher Scientific, Pittsburgh, Pa.), and counted in a Coulter counter.

Early mouse development = settings: injected into 7 and 17 day-old BALB/c mice
Protocol: Free and conjugated TNP-470 were injected into 7 and 17 day-old BALB/c mice in order to test their effects on normal development.

human melanoma (A2058) = assay type: in vivo; settings: Caplostatin 30 mg/kg s.c. q.o.d; Avastin 1 mg/kg i.p. twice/week
Protocol: Combination treatment was also tested on mice bearing s.c. A2058 human melanoma, PC-3M-LN4 human prostate carcinoma or COLO-205 colon carcinoma or orthotopic intracranial U87-luciferase human glioblastoma.

[2] = test system: liver regeneration post hepatectomy; experiment: Hepatectomy model (liver regeneration); assay type: in vivo, C57BL/6J mice
Protocol: Male C57BL/6J mice underwent a partial hepatectomy through a midline incision after general anesthesia with isoflourane^33. Free or conjugated TNP-470 (30 mg/kg) were given s.c. every other day for 8 days beginning on the day of surgery according to the scheme described in FIG. 4a. Alternatively, the doses given were 60 mg/kg the day of surgery and 4 days later or 120 mg/kg once on the day of the partial hepatectomy. The liver was harvested on the 8th day, weighed and analyzed by histology.
This non-neoplastic model is a relatively fast (8 days) in vivo angiogenesis-dependent process^33. We employed the hepatectomy model to compare the endothelial cell inhibitory activity of free and conjugated TNP-470, because liver regeneration post hepatectomy is angiogenesis-dependent, similar to tumor growth^33,34.

A2058 human melanoma = experiment: Antitumor activity on SCID mice bearing s.c. A2058 human melanoma; assay type: in vivo; settings: summary in conclusions, tumor models not named
Text: Each group consisted of 5 mice.

Row | Compound | effect on outgrowth (chick aortic ring) | VEGFR-2 phosphorylation (VEGFR-2) | inhibition of bFGF-induced proliferation (cytostatic effect) (BCE cells) | TIC (human melanoma (A2058)) | also measured
1 | COc1cccc2c1C(=O)c1c(O)c3c(c(O)c1C2=O)C[C@@](O)(C(=O)CO)C[C@@H]3O[C@H]1C[C@H](N)[C@H](O)[C@H](C)O1 [doxorubicin] | – | – | – | – | t1/2α (in words) [1]: few minutes
2 | CO[C@@H]1[C@H](OC(=O)NC(=O)CCl)CC[C@]2(CO2)[C@H]1[C@@]1(C)O[C@@H]1CC=C(C)C [TNP-470] | completely prevented outgrowth | inhibit VEGFR-2 phosphorylation | inhibited bFGF-induced proliferation | – | induction of weight loss (LLC): did; effect on normal development (weight gain) (Early mouse development): inhibited growth, by inhibiting weight gain
3 | Avastin: recombinant humanized antibody to Vascular Endothelial Growth Factor (VEGF), Genentech | – | – | – | 0.47 | –
4 | N-(2-lydroxypropyl)methacrylamide (HPMA) copolymer-TNP-470 conjugate [HPMA copolymer-TNP-470] | completely prevented outgrowth | inhibit VEGFR-2 phosphorylation | inhibited bFGF-induced proliferation | 029 | inhibition of liver regeneration ([2]; 60 mg/kg every four days): had an equivalent effect as the 30 mg/kg q.o.d. dosing schedule; inhibition of liver regeneration ([2]; single injection of 120 mg/kg at the day of hepatectomy): had an equivalent effect as the 30 mg/kg q.o.d. dosing schedule; effect on vascular sprouts (chick aortic ring; 50 pg/ml): reduced the number and length of vascular sprouts; T/C values for the conjugate (summary) (A2058 human melanoma): 0.12-0.14
